Measured values from patent US20220370513A1, “COMPOSITION, ANTIOXIDANT AGENT, ANTISACCHARIFICATION AGENT, NEURITE OUTGROWTH PROMOTER, AND COGNITIVE FUNCTION IMPROVER” (YAMADA BEE COMPANY, INC., priority 2019, published 2022).

Assay: ORAC (oxygen radical absorption capacity) test
Type: biochemical
Conditions: Trolox equivalent
Method: The antioxidation capacity of the combination of propolis and each sample was verified by an oxygen radical absorption capacity (ORAC) test. The following samples were used.
Propolis: ethanol extract powder (Brazilian green propolis, containing arginine as an excipient)
Phosphatidylserine: synthetic product
Coffee fruit extract: water/ethanol extract powder
Gotu kola extract: water extract powder (containing less than 10% of maltodextrin as an excipient)
Each sample was dissolved in a 50% ethanol aqueous solution. […]
The obtained test solution was diluted with a 75 mM phosphate buffer and put into a 96-well plate, and a fluorescein solution was added thereto. When the 96-well plate was heated to 37° C., AAPH (2,2′-azobis(2-amidinopropane)dihydrochloride) was added, and the fluorescence intensity decay time was measured with a microplate reader every 5 minutes for 1.5 hours. A standard curve was created using Trolox as a standard reagent, and the antioxidation power of each sample was calculated as a Trolox equivalent (μmol TE/g).
In Table 1, the expected value is a sum of ORAC values of respective components alone in each combination. The rate of increase is a value obtained by multiplying a result obtained by dividing the measured value by the expected value by 100.

In the case of Phosphatidylserine, the “Single raw material ORAC” value is reported as 12 μmol TE/g.
